Like-named read-outs stand apart in the source and are kept apart here.
Legend:
[1] = system: G-HSA induced IL-6; test: AGE-induced inflammatory response determined by IL-6 ELISA (glycated human serum albumin stimulus); type: cell-based; details: 24 h, read-out: % IL6 production compare to AGE stimulation of IL6 (100%), Compds tested @ 10 uM HAEC, IL6
Protocol: Human aortic endothelial cells (HAEC, Clonetics) were cultured according to manufacturer in growth medium (Clonetics): basal medium containing human epidermal growth factor, hydrocortisone, vascular endothelial growth factor, heparin binding growth factor-B, long R3-insulin-like growth factor-1, ascorbic acid, gentamicin/amphotericin and 5% FBS. These cell were allowed to reach at least 90% confluency before subjected to experimental treatments. Glycated human serum albumin (G-HSA) was from US Biologicals. Tumor necrosis factor α was from R&D Systems.
Endothelial cells were treated with control medium or medium containing 10 to 100 ng/ml TNF-α or 300 μg/ml glycated-HAS (treated cells or treatments) for 24 hrs, in control and compound-added duplicates, containing 10 μM compound. All treatments, compound-added and controls were carried out in serum free media containing 0.2% albumin. Media from all conditions were collected and used for IL-6 ELISA.
IL-6 ELISA was carried out using human IL-6 DuoSet ELISA development kit as described by manufacturer (R&D Systems). Mouse anti-human Il-6 was used as the capture antibody (2 ug/ml) and biotinylated goat anti-human IL-6 (200 ng/ml) was used as the detection antibody. Culture media were incubated with capture antibody (in 96 well) for 2 h at room temperature. […] Color development was read at 450 nm in a Microplate reader.

[2] = system: TNF-α induced IL-6; test: TNF-α-induced IL-6 production determined by IL-6 ELISA; type: cell-based; details: Homo sapiens, 24 h
How it was run: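 Human aortic endothelial cells grown to ≥90% confluence, then treated with compounds and stimuli in serum-free medium with 0.2% albumin. Secreted IL-6 in collected media measured by sandwich ELISA (2 ug/ml capture, 200 ng/ml biotinylated detection antibody, streptavidin-HRP), read at 450 nm.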

SMILES	activity at 10 µM [1] [%]	inhibition at 10 µM ([2]; read-out: Inhibition of TNF-induced IL6 production, Table 7, first part) [%]	inhibition at 10 µM ([2]; read-out: Inhibition of TNF-induced IL6 production, Table 7, second part, column 1) [%]	activity at 10 µM ([1]; HAEC, 10 uM compound, AGE stimulation = 100%) [%]	activity at 10 µM ([2]; Table 5, second part, column 1, class = % of control IL6 production, read-out: Inhibition of TNF-induced IL6, production) [%]
CN1CCC(N(C)c2nc(Nc3ccc4ccccc4c3)nc(NC3CC3)n2)CC1 [Compound 180, N-Cyclopropyl-N′-methyl-N′-(1-methyl-piperidin-4-yl)-N″-naphthalen-2-yl-[1,3,5]tri-azine-2,4,6-triamine]	5	85 to 100	50 to 65	–	–
CCN1CCCC1CNc1nc(Nc2scc(C)c2C(N)=O)nc(NC2CCCCCC2)n1 (centres unmarked) [Compound 39, 2-[(4-(cycloheptylamino)-6-{[(1-ethyl-2-pyrrolidinyl)methyl]amino}-1,3,5-triazin-2-yl)-amino]-4-methyl-3-thiophenecarboxamide]	–	–	–	26	25 to 50

From patent US7332489B2, “Methods and compositions of novel triazine compounds” (Reddy US Therapeutics, Inc., priority 2003, dated 2008)
